# Tested on: diarrhea-predominant IBS subjects
# Assay: 3007 Study: open-label 52-week safety study, adverse events and withdrawals
# Settings: Overall
smiles,measurement,value
"Cc1nccn1C[C@H]1CCc2c(c3cccc4c3n2CCC4)C1=O [cilansetron, (R)-(−)-4,5,6,8,9,10-hexahydro-10-[(2-methyl-1H-imidazol-1-yl)methyl]-11H-pyrido-[3,2,1-jk]-carbazol-11-one]",TEAE: Atopic Disorders,5 (<1%) n (%)
same,TEAE: Atrial Fibrillation,1 (<1%) n (%)
same,TEAE: Atrioventricular Block First Degree,1 (<1%) n (%)
same,TEAE: Back Injury NOS,3 (<1%) n (%)
same,TEAE: Back Pain,18 (3%) n (%)
same,TEAE: Back Pain Aggravated,3 (<1%) n (%)
same,TEAE: Bacteria Identification and Serology (Excl Mycobacteria),1 (<1%) n (%)
same,TEAE: Basal Cell Carcinoma,6 (1%) n (%)
same,TEAE: Behaviour and Socialisation Disturbances,1 (<1%) n (%)
same,TEAE: Benign Ovarian Tumour*,1 (<1%) n (%)
same,TEAE: Biliary Tract Disorder NOS,1 (<1%) n (%)
same,TEAE: Bilirubin Urine,1 (<1%) n (%)
same,TEAE: Binocular Eye Movement Disorder NOS,1 (<1%) n (%)
same,TEAE: Bladder Disorders NEC,1 (<1%) n (%)
same,TEAE: Bladder Infection NOS,1 (<1%) n (%)
same,TEAE: Bladder Infections and Inflammations,1 (<1%) n (%)
same,TEAE: Bladder Prolapse,1 (<1%) n (%)
same,TEAE: Bladder and Urethral Symptoms,7 (1%) n (%)
same,TEAE: Blood Alkaline Phosphatase NOS Increased,3 (<1%) n (%)
same,TEAE: Blood Bilirubin Increased,4 (<1%) n (%)
same,TEAE: Blood Cholesterol Increased,19 (4%) n (%)
same,TEAE: Blood Creatine Phosphokinase Increased,27 (5%) n (%)
same,TEAE: Blood Creatine Phosphokinase Mb Increased,1 (<1%) n (%)
same,TEAE: Blood Creatinine Increased,4 (<1%) n (%)
same,TEAE: Blood Glucose Increased,2 (<1%) n (%)
same,TEAE: Blood Potassium Increased,1 (<1%) n (%)
same,TEAE: Blood Pressure Increased,5 (<1%) n (%)
same,TEAE: Blood Sodium Increased,1 (<1%) n (%)
same,TEAE: Blood Triglycerides Increased,10 (2%) n (%)
same,TEAE: Blood Uric Acid Increased,2 (<1%) n (%)
same,TEAE: Blood Urine Present,10 (2%) n (%)
same,TEAE: Blood and Lymphatic System Disorders,5 (<1%) n (%)
same,TEAE: Blood in Stool,8 (1%) n (%)
same,TEAE: Bone Density Decreased,1 (<1%) n (%)
same,TEAE: Bone Disorder NOS,1 (<1%) n (%)
same,TEAE: Bone Disorders NEC,3 (<1%) n (%)
same,TEAE: Bone Injury,1 (<1%) n (%)
same,TEAE: Bone Neoplasm Malignant,1 (<1%) n (%)
same,TEAE: Bone Neoplasms Malignant (Excl Sarcomas),1 (<1%) n (%)
same,TEAE: Bone Spur,1 (<1%) n (%)
same,TEAE: Bradyarrhythmia,1 (<1%) n (%)
same,TEAE: Breast Calcifications*,1 (<1%) n (%)
same,TEAE: Breast Cancer NOS*,2 (<1%) n (%)
same,TEAE: Breast Disorder NOS*,1 (<1%) n (%)
same,TEAE: Breast Disorders NEC*,5 (1%) n (%)
same,TEAE: Breast Mass NOS*,3 (<1%) n (%)
same,TEAE: Breast and Nipple Neoplasms Malignant*,2 (<1%) n (%)
same,TEAE: Breath Sounds Decreased,1 (<1%) n (%)
same,TEAE: Breathing Abnormalities,3 (<1%) n (%)
same,TEAE: Bronchitis Acute NOS,3 (<1%) n (%)
same,TEAE: Bronchitis NOS,23 (4%) n (%)
same,TEAE: Bronchopneumonia NOS,1 (<1%) n (%)
same,TEAE: Bronchospasm and Obstruction,4 (<1%) n (%)
same,"TEAE: Bruising, Ecchymosis and Purpura",1 (<1%) n (%)
same,TEAE: Bundle Branch Block Right,1 (<1%) n (%)
same,TEAE: Bunion,2 (<1%) n (%)
same,TEAE: Bursal Disorders,6 (1%) n (%)
same,TEAE: Bursitis,3 (<1%) n (%)
same,TEAE: Calculus Renal NOS,3 (<1%) n (%)
same,TEAE: Calculus Ureteric,1 (<1%) n (%)
same,TEAE: Candida Infections,4 (<1%) n (%)
same,TEAE: Candidal Infection NOS,2 (<1%) n (%)
same,TEAE: Carbohydrate Tolerance Analyses (Incl Diabetes),2 (<1%) n (%)
same,TEAE: Cardiac Auscultatory Investigations,1 (<1%) n (%)
same,TEAE: Cardiac Conduction Disorders,2 (<1%) n (%)
same,TEAE: Cardiac Disorders,16 (3%) n (%)
same,TEAE: Cardiac Fibrillation NOS,1 (<1%) n (%)
same,TEAE: Cardiac Flutter,1 (<1%) n (%)
same,TEAE: Cardiac Murmur NOS,1 (<1%) n (%)
same,TEAE: Cardiac Signs and Symptoms NEC,4 (<1%) n (%)
same,TEAE: Carotid Bruit,1 (<1%) n (%)
same,TEAE: Carpal Tunnel Syndrome,3 (<1%) n (%)
same,TEAE: Cartilage Disorder NOS,1 (<1%) n (%)
same,TEAE: Cartilage Disorders,1 (<1%) n (%)
same,TEAE: Cataract Unilateral,1 (<1%) n (%)
same,TEAE: Cataracts (Excl Congenital),2 (<1%) n (%)
same,TEAE: Cellulitis,1 (<1%) n (%)
same,TEAE: Cerumen Impaction,2 (<1%) n (%)
same,TEAE: Cervical Spasm,1 (<1%) n (%)
same,TEAE: Change in Bowel Habit NOS,1 (<1%) n (%)
same,TEAE: Chapped Lips,1 (<1%) n (%)
same,TEAE: Chest Discomfort,1 (<1%) n (%)
same,TEAE: Chest Pain,7 (1%) n (%)
same,TEAE: Chest Tightness,1 (<1%) n (%)
same,TEAE: Chest Wall Pain,2 (<1%) n (%)
same,TEAE: Cholecystitis and Cholelithiasis,2 (<1%) n (%)
same,TEAE: Cholelithiasis,2 (<1%) n (%)
same,TEAE: Cholesterol Analyses,19 (4%) n (%)
same,TEAE: Colitis (Excl Infective),1 (<1%) n (%)
same,TEAE: Colitis Ischaemic,1 (<1%) n (%)
same,TEAE: Colonic Polyp,1 (<1%) n (%)
same,"TEAE: Congenital, Familial and Genetic Disorders",1 (<1%) n (%)
same,"TEAE: Conjunctival Infections, Irritations and Inflammations",2 (<1%) n (%)
same,TEAE: Conjunctivitis,1 (<1%) n (%)
same,TEAE: Conjunctivitis Allergic,1 (<1%) n (%)
same,TEAE: Connective Tissue Disorders (Excl Le),4 (<1%) n (%)
same,TEAE: Constipation,128 (24%) n (%)
same,TEAE: Contusion,3 (<1%) n (%)
same,TEAE: Cough,11 (2%) n (%)
same,TEAE: Coughing and Associated Symptoms,12 (2%) n (%)
same,TEAE: Cyst NOS,1 (<1%) n (%)
same,TEAE: Cystitis Interstitial,1 (<1%) n (%)
same,TEAE: Cystitis NOS,1 (<1%) n (%)
same,TEAE: Dacryostenosis Acquired,1 (<1%) n (%)
same,TEAE: Deafness NOS,1 (<1%) n (%)
same,TEAE: Dehydration,2 (<1%) n (%)
same,TEAE: Dental Disorders NEC,1 (<1%) n (%)
same,TEAE: Dental Infections - Pathogen Class Unspecified,11 (2%) n (%)
same,TEAE: Dental Pain and Sensation Disorders,3 (<1%) n (%)
same,TEAE: Depression,9 (2%) n (%)
same,TEAE: Depression Aggravated,4 (<1%) n (%)
same,TEAE: Depressive Disorders,13 (2%) n (%)
same,TEAE: Dermal and Epidermal Conditions NEC,5 (<1%) n (%)
same,TEAE: Dermatitis Allergic,1 (<1%) n (%)
same,TEAE: Dermatitis Ascribed to Specific Agent,1 (<1%) n (%)
same,TEAE: Dermatitis Contact,2 (<1%) n (%)
same,TEAE: Dermatitis Medicamentosa,1 (<1%) n (%)
same,TEAE: Dermatitis NOS,1 (<1%) n (%)
same,TEAE: Dermatitis and Eczema,6 (1%) n (%)
same,TEAE: Dermographism,1 (<1%) n (%)
same,TEAE: Diabetes Mellitus (Incl Subtypes),3 (<1%) n (%)
same,TEAE: Diabetes Mellitus Aggravated,2 (<1%) n (%)
same,TEAE: Diabetes Mellitus Non-Insulin-Dependent,1 (<1%) n (%)
same,TEAE: Diaphragmatic Hernias,2 (<1%) n (%)
same,TEAE: Diarrhoea (Excl Infective),39 (7%) n (%)
same,TEAE: Diarrhoea Aggravated,5 (<1%) n (%)
same,TEAE: Diarrhoea Haemorrhagic,2 (<1%) n (%)
same,TEAE: Diarrhoea NOS,31 (6%) n (%)
same,TEAE: Disturbances in Consciousness NEC,4 (<1%) n (%)
same,TEAE: Disturbances in Initiating and Maintaining Sleep,6 (1%) n (%)
same,TEAE: Diverticulitis NOS,2 (<1%) n (%)
same,TEAE: Diverticulum Inflammations,2 (<1%) n (%)
same,TEAE: Dizziness,6 (1%) n (%)
same,TEAE: Drug Hypersensitivity,1 (<1%) n (%)
same,TEAE: Dry Eye NOS,2 (<1%) n (%)
same,TEAE: Dry Mouth,2 (<1%) n (%)
same,TEAE: Dysarthria,1 (<1%) n (%)
same,TEAE: Dysfunctional Uterine Bleeding*,1 (<1%) n (%)
same,TEAE: Dyshidrosis,1 (<1%) n (%)
same,TEAE: Dyskinesias and Movement Disorders NEC,1 (<1%) n (%)
same,TEAE: Dyspepsia,13 (2%) n (%)
same,TEAE: Dyspepsia Aggravated,2 (<1%) n (%)
same,TEAE: Dyspeptic Signs and Symptoms,17 (3%) n (%)
same,TEAE: Dyspnoea NOS,3 (<1%) n (%)
same,TEAE: Dysuria,1 (<1%) n (%)
same,TEAE: ECG Investigations,2 (<1%) n (%)
same,TEAE: Ear Disorders NEC,2 (<1%) n (%)
same,TEAE: Ear Infection NOS,4 (<1%) n (%)
same,TEAE: Ear Infections,5 (<1%) n (%)
same,TEAE: Ear Pain,2 (<1%) n (%)
same,TEAE: Ear and Labyrinth Disorders,10 (2%) n (%)
same,TEAE: Eczema,2 (<1%) n (%)
same,TEAE: Electrocardiogram Qrs Complex Abnormal,1 (<1%) n (%)
same,TEAE: Electrocardiogram T Wave Inversion,1 (<1%) n (%)
same,TEAE: Elevated Cholesterol,6 (1%) n (%)
same,TEAE: Endocrine Disorders,4 (<1%) n (%)
same,TEAE: Endometriosis*,2 (<1%) n (%)
same,TEAE: Enteritis,1 (<1%) n (%)
same,TEAE: Epigastric Discomfort,1 (<1%) n (%)
same,TEAE: Eructation,2 (<1%) n (%)
same,TEAE: Erythema,1 (<1%) n (%)
same,TEAE: Erythemas,1 (<1%) n (%)
same,TEAE: External Ear Disorders NEC,2 (<1%) n (%)
same,TEAE: Eye Disorders,13 (2%) n (%)
same,TEAE: Eye Injuries NEC,1 (<1%) n (%)
same,TEAE: Faecal Abnormality NOS,2 (<1%) n (%)
same,TEAE: Faecal Impaction,1 (<1%) n (%)
same,TEAE: Faecal Incontinence,4 (<1%) n (%)
same,TEAE: Faecal Occult Blood Positive,31 (6%) n (%)

# Reference: patent publication US20070093520A1, “Method of treatment of diarrhea-predominant irritable bowel syndrome in a subject” (priority 2005, published 2007)
